From PubChem BioAssay (NCI)
“And” between values parts separate entries of the source, which are not always exact repeats. Equal values may be shown once.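 Growth conditions: 96-well plates. Treatment: test compound, 48 hours, 5 concentrations. Analysis: linear interpolation between bracketing concentrations; unreached endpoints set to highest concentration. The concentration for 50% growth inhibition is given as GI50. The concentration for full growth arrest is given as TGI.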

What was measured:
Experiment in all cases: growth of human tumour cells (NCI), 48 h
COLO 205 colon = system: COLO 205 colon
SNB-19 CNS = system: SNB-19 CNS
ACHN renal = system: ACHN renal
786-0 renal = system: 786-0 renal
T-47D breast = system: T-47D breast
HCC-2998 colon = system: HCC-2998 colon
BT-549 breast = system: BT-549 breast
OVCAR-3 ovarian = system: OVCAR-3 ovarian
HCT-116 colon = system: HCT-116 colon
RPMI-8226 leukemia = system: RPMI-8226 leukemia

Row | SMILES | GI50 (COLO 205 colon) | TGI (COLO 205 colon) | GI50 (SNB-19 CNS) | TGI (SNB-19 CNS) | GI50 (ACHN renal) | TGI (ACHN renal) | GI50 (786-0 renal) | TGI (786-0 renal) | GI50 (T-47D breast) | GI50 (HCC-2998 colon) | TGI (HCC-2998 colon) | GI50 (BT-549 breast) | GI50 (OVCAR-3 ovarian) | TGI (OVCAR-3 ovarian) | GI50 (HCT-116 colon) | TGI (HCT-116 colon) | GI50 (RPMI-8226 leukemia) | TGI (RPMI-8226 leukemia) | TGI (T-47D breast) | TGI (BT-549 breast)
1 | CC[C@@]1(O)C(=O)OCc2c1cc1n(c2=O)Cc2c-1nc1cc3c(cc1c2C)OCO3 | 102 nM | > 100 µM | 0.473 nM | 0.0131 µM | < 0.1 nM | 0.0601 µM | < 0.1 nM | 8.15 µM | < 0.1 nM | 1.09 nM | 0.0837 µM and 0.141 µM | 20.5 nM | 75.8 nM and 11.7 nM | > 100 µM | 18.1 nM | 15.1 µM | < 0.1 nM | 0.23 µM | – | –
2 | CCS(=O)(=O)Nc1cccc(Nc2c3cccc(C)c3nc3c(C)cccc23)c1OC | 2560 nM | > 100 µM | 572 nM | > 88.3 µM | 326 nM | 16.5 µM | 485 nM | 10.4 µM | 580 nM | 2990 nM | > 71.1 µM | 2540 nM | 4590 nM | 25 µM | 793 nM | > 51.9 µM | 573 nM | 12.5 µM | > 30.4 µM | 25.1 µM
3 | C/C(=C(\c1ccc(OCCN2CCCCCC2)cc1)c1ccc(OC(=O)Cc2ccccc2)cc1)c1ccc(Cl)cc1 | 2800 nM | 5.56 µM | 2960 nM | 6.41 µM | 2630 nM | 4.93 µM | 1780 nM | 3.85 µM | 1950 nM | 2720 nM | 5.57 µM | 2200 nM | 2750 nM | 5.22 µM | 1320 nM | 3.47 µM | 1820 nM | 5.47 µM | 6.42 µM | 4.58 µM
4 | COc1ccc(-c2nc(N3CCN(C(=O)C4CCCCC4)CC3)c3c4c(sc3n2)CCCC4)cc1 | > 100000 nM | > 100 µM | 25700 nM | > 100 µM | 23900 nM | > 100 µM | 38200 nM | > 100 µM | 20600 nM | > 100000 nM | > 100 µM | 57500 nM | > 100000 nM | > 100 µM | 34200 nM | > 100 µM | 22000 nM | > 100 µM | > 100 µM | > 100 µM
5 | COC(=O)/C=C/c1cn(C(C)=O)c2ccc(Br)cc12 | 24800 nM | > 85 µM | 37200 nM | > 100 µM | 29400 nM | > 100 µM | 17400 nM | 39.2 µM | 23400 nM | 21800 nM | 64.8 µM | 17200 nM | 23900 nM | > 100 µM | 32600 nM | > 100 µM | 19000 nM | > 100 µM | > 100 µM | 83.6 µM
6 | COc1ccc(-c2c(-c3cc(OC)c(OC)c(OC)c3)noc2N)cc1 | < 12.3 nM | 0.0551 µM | 34.2 nM | > 100 µM | < 14.1 nM | 43.8 µM | < 17 nM | – | 9910 nM | 19.7 nM | 25.1 µM | 21.5 nM | < 10 nM | 0.0208 µM | < 10 nM | > 32 µM | 47.4 nM | 5.96 µM | > 100 µM | 0.0673 µM
7 | COc1cc(-c2ncn(/C=C\C(=O)OC(C)C)n2)cc(C(F)(F)F)c1 | 43.2 nM and 43.7 nM | 1.28 µM and 1.46 µM | 142 nM and 253 nM | 13.5 µM and 14.9 µM | 60.5 nM and 65.7 nM | 12.9 µM and 13 µM | 101 nM and 98 nM | 2.61 µM and 3.25 µM | 120 nM and 66.6 nM | 102 nM and 659 nM | 1.41 µM and 3.82 µM | 35.1 nM and 34.3 nM | 40.6 nM and 35.3 nM | 1.29 µM and 0.857 µM | 52.8 nM and 68.8 nM | 1.58 µM and 11.3 µM | 36 nM and 28.6 nM | > 36.1 µM and 4.66 µM | 15 µM and 12 µM | 1.03 µM and 1.69 µM
8 | N#CS.N=C=S.N=C=S.[Cu+2].[NH2-].[NH2-].[NH2-].[NH2-].c1ccc2ncccc2c1 | > 100000 nM | > 100 µM | 18100 nM | 32.9 µM | > 100000 nM | > 100 µM | > 100000 nM | > 100 µM | > 100000 nM | 83900 nM | > 100 µM | > 100000 nM | 21300 nM | 41.8 µM | > 100000 nM | > 100 µM | > 100000 nM | > 100 µM | > 100 µM | > 100 µM
9 | CCCCCCc1nc2nc(Cl)c(Cl)nc2[nH]1 | 8040 nM | > 100 µM | 6200 nM | > 100 µM | 6940 nM | > 100 µM | > 100000 nM | > 100 µM | 2680 nM | > 100000 nM | > 100 µM | 22500 nM | 4010 nM | > 100 µM | 6830 nM | > 100 µM | 2660 nM | > 100 µM | > 100 µM | > 100 µM
10 | COc1cccc2c1c(C1=C(c3cn(C)c4ccccc34)C(=O)NC1=O)cn2C | > 25000 nM | > 25 µM | > 25000 nM | > 25 µM | > 25000 nM | > 25 µM | > 25000 nM | > 25 µM | > 25000 nM | > 25000 nM | > 25 µM | > 25000 nM | > 25000 nM | > 25 µM | > 25000 nM | > 25 µM | > 25000 nM | > 25 µM | > 25 µM | > 25 µM
